ChEMBL document CHEMBL1177664, “Development of tryptase inhibitors derived from thalidomide” (Bioorg Med Chem, 2010)
Activity calls are given as the source filed them. The calls are words filed in the database; no cut-off is given here.

How the values were obtained:
Homo sapiens [1] = species: Homo sapiens; experiment: Inhibition of human tryptase-beta at 30 uM after 5 mins by fluorimetric analysis
[2] = (§1) Inhibition of human tryptase-beta after 5 mins by fluorimetric analysis
Homo sapiens [3] = species: Homo sapiens; experiment: Competitive inhibition of human tryptase-beta by Lineweaver-Burke plot analysis
[4] = Binding affinity to human tryptase-beta after 3 mins
Prothrombin = Prothrombin (Bos taurus, UniProt P00735); experiment: Binding affinity to bovine thrombin after 3 mins
[5] = Binding affinity to bovine type 1 trypsin after 3 mins; design: species or system Bos taurus
Homo sapiens [6] = species: Homo sapiens; experiment: as §1

| SMILES | inhibition (Homo sapiens [1]) | IC50 [2] | also measured |
| --- | --- | --- | --- |
| CN1C(=O)c2ccc(OC(=O)CCc3ccccc3)cc2C1=O | inactive |  |  |
| COc1ccc(CCC(=O)Oc2ccc3c(c2)C(=O)N(C)C3=O)cc1 | inactive |  |  |
| CN1C(=O)c2ccc(OC(=O)CCc3cnc(N)nc3)cc2C1=O |  | 7.8 µM |  |
| COc1cc(N)ccc1CCC(=O)Oc1ccc2c(c1)C(=O)N(C)C2=O |  | 1.8 µM |  |
| CN1C(=O)c2ccc(OC(=O)CCc3cccc(N)c3)cc2C1=O | inactive |  |  |
| Cc1ccc(N2C(=O)c3ccc(OC(=O)CCc4ccc(N)cc4)cc3C2=O)cc1 |  | 1.2 µM |  |
| CCCN1C(=O)c2ccc(OC(=O)CCc3ccc(N)cc3)cc2C1=O |  | 1.2 µM |  |
| CC(C)N1C(=O)c2ccc(OC(=O)CCc3ccc(N)cc3)cc2C1=O |  | 1.2 µM |  |
| CN1C(=O)c2ccc(OC(=O)CCc3ccc(N)nc3)cc2C1=O |  | 0.4 µM | inhibition (Homo sapiens [3]): Active; Ki [4]: 0.34 µM; Ki (Prothrombin): 7 µM; Ki [5]: 2.9 µM |
| CC(C)(C)c1ccc(N2C(=O)c3ccc(OC(=O)CCc4ccc(N)cc4)cc3C2=O)cc1 | inactive |  |  |
| COc1ccccc1N1C(=O)c2ccc(OC(=O)CCc3ccc(N)cc3)cc2C1=O |  | 1.1 µM |  |
| CCCCCCN1C(=O)c2ccc(OC(=O)CCc3ccc(N)cc3)cc2C1=O |  | 1.5 µM |  |
| CN1C(=O)c2ccc(OC(=O)c3cccc(N)c3)cc2C1=O | inactive |  |  |
| Nc1ccc(CCC(=O)Oc2ccc3c(c2)C(=O)N(c2ccc(N)cc2)C3=O)cc1 |  | 0.82 µM |  |
| CN1C(=O)c2ccc(OC(=O)c3ccc(N)cc3)cc2C1=O | inactive |  |  |
| COc1ccc(N2C(=O)c3ccc(OC(=O)CCc4ccc(N)cc4)cc3C2=O)cc1 |  | 0.39 µM |  |

| SMILES | inhibition (Homo sapiens [1]) | IC50 [2] | also measured |
| --- | --- | --- | --- |
| Nc1ccc(CCC(=O)Oc2ccc3c(c2)C(=O)N(c2ccc(F)cc2)C3=O)cc1 |  | 1.7 µM |  |
| Nc1ccc(CCC(=O)Oc2ccc3c(c2)C(=O)N(c2ccc(C(F)(F)F)cc2)C3=O)cc1 | inactive |  |  |
| CN1C(=O)c2ccc(OC(=O)Cc3ccc(N)cc3)cc2C1=O | inactive |  |  |
| CN1C(=O)c2ccc(OC(=O)CCc3ccc(N(C)C)cc3)cc2C1=O | inactive |  |  |
| COc1cc(CCC(=O)Oc2ccc3c(c2)C(=O)N(C)C3=O)ccc1N |  | > 30 µM |  |
| CN1C(=O)c2ccc(OC(=O)CCc3ccc(N)cc3)cc2C1=O | 98% | 1.5 µM | Ki [4]: 1.7 µM; Ki (Prothrombin): 15 µM; Ki [5]: 13 µM |
| Nc1ccc(CCC(=O)Oc2ccc3c(c2)C(=O)N(c2ccccc2)C3=O)cc1 |  | 1.3 µM |  |
| N#Cc1ccc(N2C(=O)c3ccc(OC(=O)CCc4ccc(N)nc4)cc3C2=O)cc1 |  | 0.078 µM | inhibition (Homo sapiens [6]): Dose-dependent effect; inhibition (Homo sapiens [3]): Active; Ki [4]: 0.044 µM; Ki (Prothrombin): 16 µM; Ki [5]: 0.88 µM |
| Nc1ccc(CCC(=O)Oc2ccc3c(c2)C(=O)N(C2CCCCC2)C3=O)cc1 |  | 1.2 µM |  |
| CN1C(=O)c2ccc(OC(=O)Cc3cccc(N)c3)cc2C1=O | 46% |  |  |
| CN1C(=O)c2ccc(OC(=O)CCCc3ccc(N)cc3)cc2C1=O | inactive |  |  |
| N#Cc1ccc(N2C(=O)c3ccc(OC(=O)CCc4ccc(N)cc4)cc3C2=O)cc1 |  | 0.34 µM | inhibition (Homo sapiens [3]): Active; Ki [4]: 0.19 µM; Ki (Prothrombin): 8.6 µM; Ki [5]: 4.3 µM |
| CN1C(=O)c2ccc(OC(=O)CCc3ccncc3)cc2C1=O |  | > 30 µM |  |
| COc1cccc(N2C(=O)c3ccc(OC(=O)CCc4ccc(N)cc4)cc3C2=O)c1 |  | 0.65 µM |  |
| Nc1ccc(CCC(=O)Oc2ccccc2)cc1 | inactive |  |  |
| CN1C(=O)c2ccc(OC(=O)c3ccccc3N)cc2C1=O | inactive | 1.5 µM |  |
